Assay results from ChEMBL document CHEMBL3885881, “DrugMatrix”.

Species on record: Rattus norvegicus
Experiment: DrugMatrix - Regimen: Daily Repeat
Type: toxicity, organism-based, Sprague-Dawley
Set-up: regimen Daily Repeat, gender Male, age 6-8 weeks
Conditions: in vivo, po, route oral GAVAGE, vehicle .5 % CMC; for ABSOLUTE BASOPHIL / ABSOLUTE EOSINOPHIL / ABSOLUTE LYMPHOCYTE / ABSOLUTE MONOCYTE / BASOPHIL / ERYTHROCYTE COUNT / HEMATOCRIT / HEMOGLOBIN / LYMPHOCYTE / MEAN CORPUSCULAR HEMOGLOBIN / MEAN CORPUSCULAR HEMOGLOBIN CONCENTRATION / MEAN CORPUSCULAR VOLUME / NEUTROPHIL / NUCLEATED RED BLOOD CELLS / PLATELET COUNT / ABSOLUTE SEGMENTED NEUTROPHIL: tissue Blood; for ALANINE AMINOTRANSFERASE / ALKALINE PHOSPHATASE / ASPARTATE AMINOTRANSFERASE / BLOOD UREA NITROGEN / CARBON DIOXIDE / CHOLESTEROL / CREATINE PHOSPHOKINASE / CREATININE / GLUCOSE / LACTATE DEHYDROGENASE / LIPASE / PHOSPHORUS / POTASSIUM / SODIUM / TOTAL BILIRUBIN / TOTAL PROTEIN: tissue Plasma
[1] = 0 mg/kg, 72 h, dose level Control, time 3 day
[2] = 0 mg/kg, 120 h, dose level Control, time 5 day
[3] = 0.06 mg/kg, 72 h, dose level Low, time 3 day

CC(=O)CC(c1ccccc1)c1c(O)c2ccccc2oc1=O (stereo not given) [WARFARIN]
ABSOLUTE BASOPHIL [1]: 0 CELLS/uL
ABSOLUTE EOSINOPHIL [1]: 284.5 CELLS/uL
ABSOLUTE LYMPHOCYTE [1]: 11670.5 CELLS/uL
ABSOLUTE MONOCYTE [1]: 420.83 CELLS/uL
BASOPHIL [1]: 0%
ERYTHROCYTE COUNT [1]: 5.38 x10E6/uL
HEMATOCRIT [1]: 34.05%
HEMOGLOBIN [1]: 12.75 G/DL
LYMPHOCYTE [1]: 88.33%
MEAN CORPUSCULAR HEMOGLOBIN [1]: 23.73 pg
MEAN CORPUSCULAR HEMOGLOBIN CONCENTRATION [1]: 37.43 G/DL
MEAN CORPUSCULAR VOLUME [1]: 63.4 fL
NEUTROPHIL [1]: 7.17%
NUCLEATED RED BLOOD CELLS [1]: 0 /100WBC
PLATELET COUNT [1]: 1184.67 x10E3/uL
ALANINE AMINOTRANSFERASE [1]: 45.33 u/L
ALKALINE PHOSPHATASE [1]: 388.83 u/L
ASPARTATE AMINOTRANSFERASE [1]: 84.83 u/L
BLOOD UREA NITROGEN [1]: 15.5 mg/dL
CARBON DIOXIDE [1]: 27 mmol/L
CHOLESTEROL [1]: 76.67 mg/dL
CREATINE PHOSPHOKINASE [1]: 301 u/L
CREATININE [1]: 0.21 mg/dL
GLUCOSE [1]: 168.83 mg/dL
LACTATE DEHYDROGENASE [1]: 294.83 u/L
LIPASE [1]: 9.8 u/L
PHOSPHORUS [1]: 13.25 mg/dL
POTASSIUM [1]: 6.41 MEQ/L
SODIUM [1]: 143.72 MEQ/L
TOTAL BILIRUBIN [1]: 0.22 mg/dL
TOTAL PROTEIN [1]: 5.98 G/DL
ABSOLUTE BASOPHIL [2]: 0 CELLS/uL
ABSOLUTE EOSINOPHIL [2]: 190.67 CELLS/uL
ABSOLUTE LYMPHOCYTE [2]: 12549.5 CELLS/uL
ABSOLUTE MONOCYTE [2]: 276 CELLS/uL
ABSOLUTE SEGMENTED NEUTROPHIL [2]: 1067.17 CELLS/uL
BASOPHIL [2]: 0%
ERYTHROCYTE COUNT [2]: 5.66 x10E6/uL
HEMATOCRIT [2]: 35.92%
HEMOGLOBIN [2]: 13.65 G/DL
LYMPHOCYTE [2]: 89%
MEAN CORPUSCULAR HEMOGLOBIN [2]: 24.12 pg
MEAN CORPUSCULAR HEMOGLOBIN CONCENTRATION [2]: 38.03 G/DL
MEAN CORPUSCULAR VOLUME [2]: 63.47 fL
NEUTROPHIL [2]: 7.67%
NUCLEATED RED BLOOD CELLS [2]: 0.17 /100WBC
PLATELET COUNT [2]: 1251.67 x10E3/uL
ALANINE AMINOTRANSFERASE [2]: 43.33 u/L
ALKALINE PHOSPHATASE [2]: 365.67 u/L
ASPARTATE AMINOTRANSFERASE [2]: 83.67 u/L
BLOOD UREA NITROGEN [2]: 18.17 mg/dL
CARBON DIOXIDE [2]: 28.67 mmol/L
CHOLESTEROL [2]: 71.5 mg/dL
CREATINE PHOSPHOKINASE [2]: 284.5 u/L
CREATININE [2]: 0.21 mg/dL
GLUCOSE [2]: 161.67 mg/dL
LACTATE DEHYDROGENASE [2]: 259.67 u/L
LIPASE [2]: 9.5 u/L
PHOSPHORUS [2]: 12.45 mg/dL
POTASSIUM [2]: 6.49 MEQ/L
SODIUM [2]: 144.25 MEQ/L
TOTAL BILIRUBIN [2]: 0.2 mg/dL
TOTAL PROTEIN [2]: 6.1 G/DL
ABSOLUTE BASOPHIL [3]: 0 CELLS/uL
ABSOLUTE EOSINOPHIL [3]: 18.67 CELLS/uL
ABSOLUTE LYMPHOCYTE [3]: 6429.67 CELLS/uL
ABSOLUTE MONOCYTE [3]: 120.33 CELLS/uL
ABSOLUTE SEGMENTED NEUTROPHIL [3]: 364.67 CELLS/uL
BASOPHIL [3]: 0%
ERYTHROCYTE COUNT [3]: 5.26 x10E6/uL
HEMATOCRIT [3]: 33.97%
HEMOGLOBIN [3]: 12.8 G/DL
LYMPHOCYTE [3]: 92.67%
MEAN CORPUSCULAR HEMOGLOBIN [3]: 24.33 pg
MEAN CORPUSCULAR HEMOGLOBIN CONCENTRATION [3]: 37.67 G/DL
MEAN CORPUSCULAR VOLUME [3]: 64.6 fL
NEUTROPHIL [3]: 5.33%
NUCLEATED RED BLOOD CELLS [3]: 0 /100WBC
PLATELET COUNT [3]: 1234.33 x10E3/uL
ALANINE AMINOTRANSFERASE [3]: 50 u/L
ALKALINE PHOSPHATASE [3]: 307.67 u/L
ASPARTATE AMINOTRANSFERASE [3]: 80.67 u/L
BLOOD UREA NITROGEN [3]: 15.33 mg/dL
CARBON DIOXIDE [3]: 28.67 mmol/L
CHOLESTEROL [3]: 72.67 mg/dL
CREATINE PHOSPHOKINASE [3]: 222.67 u/L
CREATININE [3]: 0.21 mg/dL
GLUCOSE [3]: 142.33 mg/dL
LACTATE DEHYDROGENASE [3]: 174.67 u/L
LIPASE [3]: 9.5 u/L
PHOSPHORUS [3]: 12.87 mg/dL
POTASSIUM [3]: 6.97 MEQ/L
SODIUM [3]: 146.9 MEQ/L
TOTAL BILIRUBIN [3]: 0.23 mg/dL
TOTAL PROTEIN [3]: 6.03 G/DL
